Reference: EPA's ToxRefDB 2

Assays:
[1] = tested on: dog; details: Chronic toxicity, beagle, Oral, Gavage/Intubation, dose end: 6 month, group: systemic
[2] = tested on: rat; details: Prenatal developmental toxicity study, Sprague Dawley OFA, Oral, Gavage/Intubation, dose end: 17 GD, group: maternal
[3] = tested on: mouse; details: Subchronic oral toxicity in rodents, cd1, Gavage/Intubation, dose end: 13 weeks, group: systemic, systemic / in life observation / body weight / body weight + systemic / in life observation / body weight / body weight gain + systemic / in…
[4] = tested on: rat; details: Fertility (Segment I), sprague dawley, Oral, Gavage/Intubation, dose end: 7 GD
[5] = tested on: dog; details: Sub-acute repeat dose toxicity, beagle, Oral, Gavage/Intubation, dose end: 4 week, group: systemic
[6] = tested on: rat; details: Prenatal developmental toxicity study, sprague dawley, Oral, Gavage/Intubation, dose end: 17 GD, group: maternal
[7] = tested on: rat; details: Fertility (Segment I), sprague dawley, Oral, Gavage/Intubation, dose end: 7 GD; remark: listed apart in the source
[8] = tested on: rat; details: Chronic toxicity; sprague dawley; Oral; Gavage/Intubation; dose end: 6 month; group: systemic; systemic / clinical chemistry / estradiol / estradiol + systemic / clinical chemistry / prolactin / prolactin + systemic / clinical …
[9] = tested on: dog; details: Chronic toxicity, beagle, Oral, Gavage/Intubation, dose end: 12 month, group: systemic
[10] = tested on: rat; details: Fertility (Segment I), sprague dawley, Oral, Gavage/Intubation, dose end: 14 GD
[11] = tested on: rat; details: Sub-acute repeat dose toxicity, sprague dawley, Oral, Gavage/Intubation, dose end: 1 month, group: systemic
[12] = tested on: rabbit; details: Prenatal developmental toxicity study, other, Oral, Gavage/Intubation, dose end: 18 GD
[13] = tested on: rat; details: Sub-acute repeat dose toxicity, other, Oral, Gavage/Intubation, dose end: 29 day, group: systemic
[14] = systemic / clinical chemistry / albumin / albumin + systemic / clinical chemistry / albumin-globulin ratio / albumin-globulin ratio + …
[15] = systemic / in life observation / clinical signs / [other] + systemic / in life observation / clinical signs / defecation (diarrhea) + …
[16] = systemic / in life observation / body weight / body weight + systemic / in life observation / clinical signs / drooping eyelids (ptosis)
[17] = systemic / in life observation / clinical signs / drooping eyelids (ptosis)
[18] = group: maternal, reproductive / reproductive performance / fertility / fertility + reproductive / reproductive performance / implantations / implantations + …
[19] = group: parental, systemic / in life observation / clinical signs / drooping eyelids (ptosis) + systemic / pathology gross / vagina / dilatation
[20] = systemic / in life observation / clinical signs / pulse/pressure + systemic / urinalysis / protein / protein
[21] = systemic / in life observation / clinical signs / pulse/pressure + systemic / urinalysis / protein / protein + systemic / in life …
[22] = systemic / in life observation / body weight / body weight gain + systemic / in life observation / clinical signs / drooping eyelids (ptosis…
[23] = group: maternal, reproductive / reproductive performance / estrous cycle / abnormal + reproductive / reproductive performance / estrous cycle / length
[24] = group: maternal, reproductive / reproductive performance / estrous cycle / abnormal + reproductive / reproductive performance / estrous cycle / length + …
[25] = group: parental, systemic / in life observation / body weight / body weight gain + systemic / in life observation / clinical signs / drooping eyelids (ptosis…
[26] = systemic / clinical chemistry / bilirubin / total bilirubin + systemic / hematology / platelet / platelet + systemic / in life observation…
[27] = systemic / clinical chemistry / bilirubin / total bilirubin + systemic / in life observation / clinical signs / [other] + systemic / in life…
[28] = group: maternal, reproductive / reproductive performance / fertility / fertility
[29] = group: parental, systemic / in life observation / body weight / body weight gain + systemic / in life observation / clinical signs / [other] + systemic / in …
[30] = systemic / clinical chemistry / triglycerides / triglycerides + systemic / in life observation / body weight / body weight gain + systemic…
[31] = systemic / pathology gross / vagina / dilatation + systemic / pathology gross / skin / [other]
[32] = group: developmental, systemic / in life observation / body weight / fetal weight
[33] = group: maternal, systemic / in life observation / body weight / body weight gain + systemic / in life observation / food consumption / food consumption + …
[34] = systemic / hematology / platelet / platelet + systemic / in life observation / body weight / body weight + systemic / in life observation / …
[35] = systemic / in life observation / clinical signs / drooping eyelids (ptosis) + systemic / in life observation / clinical signs / lacrimation …

In the case of `NC(=O)Cn1c(=O)cc(CCN2CCN(c3nccc4sccc34)CC2)c2ccc(F)cc21` [Trelanserin], the LOAEL [1, 14] is reported as over 100 mg/kg/day, the NOAEL [1, 14] is reported as at least 100 mg/kg/day and the LEL [1, 15] is reported as 4 mg/kg/day. For the same molecule, the NEL [1, 15] was under 4 mg/kg/day, the LOAEL [2, 16] was over 20 mg/kg/day and the NOAEL [2, 16] was at least 20 mg/kg/day. For the same molecule, the LEL [2, 17] was 5 mg/kg/day, the NEL [2, 17] was under 5 mg/kg/day and the LEL [3] was 62.5 mg/kg/day. The LOAEL [3] was 250 mg/kg/day, the NEL [3] was under 62.5 mg/kg/day and the NOAEL [3] was 125 mg/kg/day. It also gave an LEL [4, 18] of 80 mg/kg/day, an LOAEL [4, 18] of over 80 mg/kg/day and an NEL [4, 18] of under 80 mg/kg/day. For the same molecule, the NOAEL [4, 18] was at least 80 mg/kg/day, the LEL [4, 19] was 80 mg/kg/day and the LOAEL [4, 19] was over 80 mg/kg/day. It also gave an NEL [4, 19] of under 80 mg/kg/day, an NOAEL [4, 19] of at least 80 mg/kg/day and an LEL [5, 20] of 1 mg/kg/day. The NEL [5, 20] was under 1 mg/kg/day, the LOAEL [5, 21] was over 16 mg/kg/day and the NOAEL [5, 21] was at least 16 mg/kg/day. The LOAEL [6, 22] was over 20 mg/kg/day, the NEL [6, 22] was 1 mg/kg/day and the NOAEL [6, 22] was at least 20 mg/kg/day. It also gave an LEL ([6]; systemic / in life observation / clinical signs / drooping eyelids (ptosis) + systemic / in life observation / clinical signs / red or …) of 5 mg/kg/day, an LEL [7, 23] of 4 mg/kg/day and an NEL [7, 23] of under 4 mg/kg/day. For the same molecule, the LOAEL [7, 24] was over 20 mg/kg/day, the NOAEL [7, 24] was at least 20 mg/kg/day and the LEL [7, 25] was 10 mg/kg/day. It also gave an LOAEL [7, 25] of over 20 mg/kg/day, an NEL [7, 25] of 4 mg/kg/day and an NOAEL [7, 25] of at least 20 mg/kg/day. It also gave an LEL [8] of 4 mg/kg/day, an LOAEL [8] of 20 mg/kg/day and an NEL [8] of under 4 mg/kg/day. For the same molecule, the NOAEL [8] was 4 mg/kg/day, the LOAEL [9, 26] was over 80 mg/kg/day and the NOAEL [9, 26] was at least 80 mg/kg/day. The LEL [9, 27] was 2 mg/kg/day, the NEL [9, 27] was under 2 mg/kg/day and the LEL [10, 28] was 150 mg/kg/day. For the same molecule, the LOAEL [10, 28] was over 150 mg/kg/day, the NEL [10, 28] was 20 mg/kg/day and the NOAEL [10, 28] was at least 150 mg/kg/day. It also gave an LOAEL [10, 29] of over 150 mg/kg/day, an NEL [10, 29] of 4 mg/kg/day and an NOAEL [10, 29] of at least 150 mg/kg/day. It also gave an LEL ([10]; group: parental, systemic / in life observation / clinical signs / [other] + systemic / in life observation / clinical signs / drooping eyelids (ptosis) + …) of 20 mg/kg/day, an LOAEL [11, 30] of 20 mg/kg/day and an NOAEL [11, 30] of 2 mg/kg/day. It also gave an LEL [11, 31] of 2 mg/kg/day, an NEL [11, 31] of under 2 mg/kg/day and an LEL [12, 32] of 10 mg/kg/day. It also gave an LOAEL [12, 32] of over 30 mg/kg/day, an NEL [12, 32] of 5 mg/kg/day and an NOAEL [12, 32] of at least 30 mg/kg/day. The LEL ([12]; group: maternal, reproductive / reproductive performance / postimplantation loss / postimplantation loss) was 5 mg/kg/day, the NEL ([12]; group: maternal, reproductive / reproductive performance / postimplantation loss / postimplantation loss + systemic / in life observation / body weight / …) was 2 mg/kg/day and the LOAEL [12, 33] was over 30 mg/kg/day. The NOAEL [12, 33] was at least 30 mg/kg/day, the LOAEL [13, 34] was over 100 mg/kg/day and the NOAEL [13, 34] was at least 100 mg/kg/day. For the same molecule, the LEL [13, 35] was 4 mg/kg/day and the NEL [13, 35] was under 4 mg/kg/day.
